We go through two molecules from patent US20210052589A1, “COMPOUNDS FOR TREATING ALZHEIMER'S DISEASE” (Amabiotics, priority 2018, published 2021).

One assay concerns Tau. The assay can be described thus: Hyperphosphorylation of Tau in neuron cytoplasm (AT100, overlapping Tau/MAP-2) after Aβ1-42 intoxication. In kind it is cell-based, rat. As to the method:
(§1) Rat cortical neurons are cultured as described by Callizot et al., (2013) with modifications. Briefly pregnant female rat (Wistar) of 15 days of gestation are killed. Foetuses are collected and immediately placed in ice-cold L15 Leibovitz medium with a 2% penicillin (10,000 U/mL) and streptomycin (10 mg/ml) solution (PS) and 1% bovine serum albumin (BSA). Cortex are treated for 20 min at 37° C. with a trypsin- EDTA solution at a final concentration of 0.05% trypsin and 0.02% EDTA. The dissociation is stopped by addition of Dulbecco's modified Eagle's medium (DMEM) with 4.5 g/L of glucose, containing DNAse I grade II (final concentration 0.5 mg/ml) and 10% fetal calf serum (FCS). Cells are mechanically dissociated by three forced passages through the tip of a 10-ml pipette. Cells are then centrifuged at 515×g for 10 min at 4° C. The supernatant is discarded, and the pellet is resuspended in a defined culture medium consisting of Neurobasal medium with a 2% solution of B27 supplement, 2 mmol/litter of L-glutamine, 2% of PS solution, 10 ng/mL of brain-derived neurotrophic factor (BDNF), 2% of heat-inactivated horse serum, 2% of heat-inactivated FCS, 1 g/L of glucose, 1 mM of sodium pyruvate, and 100 μM of non-essential amino acids. Viable cells are counted in a Neubauer cytometer, using the trypan blue exclusion test. The cells are seeded at a density of 45,000 per well in 96-well plates (for immunostaining) precoated with poly-L-lysine and are cultured at 37° C. in an air (95%)-CO2 (5%) incubator. For 96 wells plates, only 60 wells are used. The wells of first and last lines and columns are not used (to avoid the edge effect) and are filled with sterile water. The medium is changed every 2 days.
(§2) On day 10 of culture, queuine is dissolved in the culture medium and pre-incubated with primary cortical neurons for 24H, before Aβ1-42 exposure. Then on day 11 of culture, the cortical neurons are intoxicated with AB solutions. The Aβ1-42 preparation is done following the procedure described by Callizot et al., (2013). Briefly, Aβ1-42 peptide are dissolved in the defined culture medium mentioned above, at an initial concentration of 40 μmol/L. This solution is gently agitated for 3 days at 37° C. in the dark and immediately used after being properly diluted in culture medium to the concentration used (5 μM, 0.5μM oligomers).
(§3) Aβ1-42 preparation is added to a final concentration of 5μM (0.5 μM oligomers, ABO) diluted in control medium in presence of queuine, for 72 hours.
Each compound is tested on 1 culture in a 96 well plate (6 wells per conditions). For 96 wells plates, only 60 wells are used. The wells of first and last lines and columns are not used (to avoid the edge effect) and are filled with sterile water. Queuine is added 24h before Aβ1-42 application. The following conditions are assessed:
(§4) 72 hours after Aβ1-42 application, the cell culture supernatant are collected cytokine quantification (e.g. TNFα) and the cortical neurons are fixed by a cold solution of ethanol (95%) and acetic acid (5%) for 5 min at −20° C. […]

For assay [1], the system named is Rat cortical neurons. The assay can be described thus: Neuron survival (number of MAP-2 positive neurons) after Aβ1-42 intoxication. Type of assay: cell-based. Particulars: for survival of neurons: p<0.05. As to the method:
as §1
as §2, with “oligomers). […]” for “oligomers).”
(§5) Each compound is tested on 1 culture in a 96 well plate (6 wells per conditions). […] The following conditions are assessed:
as §4

In another assay the test system is TNF-α. As to the kind of experiment: TNFa release in a culture of cortical neurons and microglia after Aβ1-42 injury (ELISA). In kind it is cell-based, rat. As to conditions: for TNFa (% of vehicle group): control 100.00, Aβ1-42 alone 126.75; for level of TNFα (in words): Aβ1-42 (5 μM). The procedure:
as §1, §2, §3
72 hours after Aβ1-42 application, the cell culture supernatant are collected cytokine quantification (e.g. TNFα) and the cortical neurons are fixed by a cold solution of ethanol (95%) and acetic acid (5%) for 5 min at −20° C. After permeabilization with 0.1% of saponin, cells are incubated for 2 hours with: • a) chicken polyclonal antibody antimicrotubule-associated-protein 2 (MAP-2) at dilution of 1/1000 in PBS containing 1% fetal calf serum and 0.1% of saponin (this antibody stains specifically cell bodies and neurites, allowing study of neuronal cell death and neurite network). • b) mouse monoclonal anti-tau phosphor (Thr212, Ser214) at the dilution of 1/100 in PBS containing 1% foetal calf serum and 0.1% of saponin. • c) rabbit polyclonal antibody anti-SIRP alpha/CD172a at dilution of 1/400 in PBS containing 1% fetal calf serum and 0.1% of saponin (this antibody stains specifically the microglia and is allow to evaluate the activation of the microglial cells).
In order to assess the activation of microglia in the cell culture, the levels of TNF-α are quantified in cell culture supernatant after 72h (end of the culture) by ELISA.

Assay [2] has as its system Rat cortical neurons. As to the kind of experiment: Total neurite network (length of MAP-2 positive neurite) after Aβ1-42 intoxication. In kind it is cell-based. The procedure: as §1
as §2, with “oligomers). […]” for “oligomers).”
as §5, §4

The mark [3] stands for this setting: queuine 300 nM added 24h before Aβ1-42 (5 μM, 72 H), p<0.05.
[4] abbreviates: queuine 1 μM added 24h before Aβ1-42 (5 μM, 72 H), p<0.05.
[5] abbreviates: queuine 3 μM added 24h before Aβ1-42 (5 μM, 72 H), p<0.05.
The mark [6] stands for this setting: BDNF 50 ng/ml, Aβ1-42 (5 μM, 72 H).

In the case of “7-(3,4-trans-4,5-cis-dihydroxy-1-cyclopenten-3-ylaminomethyl)-7-deazaguanine [queuine]”, the Tau hyperphosphorylation entry was “restores the level of hyperphosphorylation of Tau” in the assay on Tau (queuine 100 nM added 24h before Aβ1-42 (5 μM, 72 H), p<0.05); “restores the level of hyperphosphorylation of Tau” in the assay on Tau (setting [3]); “restores the level of hyperphosphorylation of Tau” with Tau (setting [4]); “restores the level of hyperphosphorylation of Tau” with Tau (setting [5]). The survival of neurons result in the assay with Rat cortical neurons [1] (queuine 100 nM added 24h before Aβ1-42 (5 μM, 72 H)) is listed as “significantly restores the survival of neurons”; in the assay on Rat cortical neurons [1] (queuine 300 nM added 24h before Aβ1-42 (5 μM, 72 H)), “significantly restores the survival of neurons”; in the assay with Rat cortical neurons [1] (queuine 1 μM added 24h before Aβ1-42 (5 μM, 72 H)) it was “significantly restores the survival of neurons”. Also, the “TNFa (% of vehicle group)” value was 105.54 % of vehicle group in the assay with TNF-α (Aβ1-42 (5 μM, 72 H) + queuine (300 nM)); 87.33 % of vehicle group in the assay on TNF-α (Aβ1-42 (5 μM, 72 H) + queuine (1 μM)); 93.32 % of vehicle group in the assay with TNF-α (Aβ1-42 (5 μM, 72 H) + queuine (3 μM)). Further, the “level of TNFα (in words)” value is “restores the level of TNFα” in the assay with TNF-α (queuine 300 nM, p<0.05); “restores the level of TNFα” in the assay with TNF-α (queuine 1 μM, p<0.05); “restores the level of TNFα” with TNF-α (queuine 3 μM, p<0.05). Besides, the neurite network entry in the assay on Rat cortical neurons [2] (setting [3]), in the assay on Rat cortical neurons [2] (setting [4]) and in the assay with Rat cortical neurons [2] (setting [5]) was “significantly restores the neurite network” throughout.

B1: BDNF: brain-derived neurotrophic factor, used at 50 ng/ml as positive control and reference compound (protein, UniProt P23560 19-247, looked up)
Neurotrophic factor BDNF …: APMKEANIRGQGGLAYPGVRTHGTLESVNGPKAGSRGLTSLADTFEHVIEELLDEDQKVRPNEENNKDADLYTSRVMLSSQVPLEPPLLFLLEEYKNYLDAANMSMRVRRHSDPARRGELSVCDSISEWVTAADKKTAVDMSGGTVTVLEKVPVSKGQLKQYFYETKCNPMGYTKEGCRGIDKRHWNSQCRTTQSYVRALTMDSKKRIGWRFIRIDTSCVCTLTIKRGR
Regarding B1, the Tau hyperphosphorylation result in the assay on Tau (setting [6]) is on record as “decreases Tau hyperphosphorylation”. Further, in the assay on Rat cortical neurons [1] (setting [6]), the “level neuronal staining for MAP-2 (number of cortical neurons)” value is listed as “restores the level neuronal staining for MAP-2”. For the same molecule, in the assay with TNF-α (Aβ1-42 (5 μM, 72 H) + BDNF (50 ng/ml)), the “TNFa (% of vehicle group)” value is given as 102.14 % of vehicle group. For the same molecule, in the assay with TNF-α (BDNF 50 ng/ml), the “level of TNFα (in words)” value is listed as “decreases the level of TNFα”. Moreover, in the assay with Rat cortical neurons [2] (setting [6]), the neurite network entry is given as “restores the neurite network”.
